Changes are numbered by the printed parent chain.
How the values were obtained:
RDLT6'V = biological target: T1, RDLT6'V (Drosophila melanogaster, UniProt P25123, T305V); assay: Two-electrode voltage clamp of RDLT6'V mutant receptors in Xenopus oocytes; type: cell-based
T1 sequence (P25123 45-606 T305V): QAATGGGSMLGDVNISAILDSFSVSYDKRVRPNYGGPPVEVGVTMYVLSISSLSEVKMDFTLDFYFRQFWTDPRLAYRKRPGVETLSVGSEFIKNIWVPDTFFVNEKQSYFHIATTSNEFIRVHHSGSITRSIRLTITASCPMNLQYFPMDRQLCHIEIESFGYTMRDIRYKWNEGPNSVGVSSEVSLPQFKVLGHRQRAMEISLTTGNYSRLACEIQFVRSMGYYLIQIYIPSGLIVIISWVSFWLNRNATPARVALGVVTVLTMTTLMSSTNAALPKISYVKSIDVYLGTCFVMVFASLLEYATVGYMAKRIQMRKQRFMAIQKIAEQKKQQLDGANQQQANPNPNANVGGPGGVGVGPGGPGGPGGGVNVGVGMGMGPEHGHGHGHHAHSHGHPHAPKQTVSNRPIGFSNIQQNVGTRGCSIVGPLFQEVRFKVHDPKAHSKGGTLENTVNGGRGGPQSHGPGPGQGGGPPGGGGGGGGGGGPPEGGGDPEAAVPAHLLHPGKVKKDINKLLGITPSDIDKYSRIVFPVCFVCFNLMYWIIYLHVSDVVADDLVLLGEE

RDLA2'V = biological target: T2, RDLA2'V (Drosophila melanogaster, UniProt P25123, A301V); assay: cell-based; type: cell-based
T2 sequence (P25123 45-606 A301V): T1 sequence (P25123 45-606 T305V) with A257V, V261T

| Compound | IC50 (RDLT6'V) | IC50 (RDLA2'V) |
| --- | --- | --- |
| CC(C)(C)[C@]1(O)CC2OC(=O)CC23C(=O)OC2OC(=O)[C@H](O)C231 (stereo partly shown) [BB, bilobalide] | > 1000 µM | 224 µM |
| C[C@@H]1C(=O)O[C@H]2C[C@@]34[C@H]5C[C@@H](C(C)(C)C)[C@]36[C@@H](OC(=O)[C@@H]6O)O[C@@]4(C(=O)O5)[C@]21O [GA, ginkgolide A] | > 1000 µM | 360 µM |

Reference: paper PMC3336786 (The FASEB Journal, 2012)
